Results published in publication PMC11995216, “End-to-End Backbone Cyclization Enhances Passive Permeability of bRo5 Oligomeric Depsipeptides with Nonlinear Size Dependence” (ACS Medicinal Chemistry Letters, 2025).
Several values for one entry are separate records, joined by “and”; a condition that tells them apart may be missing. Equal entries are not always repeated. Where two headings read alike, the source gives them in different places. Starred links: 1 amine or outer side, 2 acyl side, 3 side chain; linkers in the order of their positions; H or OH if unused. Non-standard residues stand in square brackets, D forms with d. Residues, ends and D or L forms follow the SMILES beside them. X1 = CCCCC[C@H](O[*:1])C(=O)[*:2]; Ahp(2) = CCCCC[C@H](N)C(=O)O; dNMeA = CN[C@H](C)C(=O)O

Key:
[1] = tested on: Caco‐2; assay: Experimental Caco‐2 permeability; assay type: in vitro ADME; details: Caco‐2 experiments, series 2
Procedure: Johnston et al. Supporting information
5.1 Comparison of Experimental Caco‐2 Papp to Calculated LogP
Experimental Caco‐2 vs. Calculated Permeabilities fo r Series 2
*C2.3 was not detected in Caco‐2 experiments
VI. LC/MS and ELSD Traces
In all cases, the large peak near the beginning of the run (R.T. 2‐6 minutes), is the DMSO solvent front.
(also on this page, place not known: 00 . 511 . 522 . 533 . 5 Caco2 Papp (x 10‐6 cm/s) Experimental for)

[2] = PAMPA, cited from earlier work; for LogPapp: ratio-based method, series 2 macrocycles, previously reported, ref Thorpe et al., Chem. Sci. 2024, 15, 14977
[3] = PAMPA, permeability assay across an artificial membrane; details: increase: difference between percent diffusion of macrocycle vs linear counterpart
[4] = tested on: PAMPA; details: calculated using Supplement Equation 1, UV detection
[5] = tested on: PAMPA
[6] = tested on: PAMPA; details: UV detection
[7] = tested on: PAMPA; details: initial concentration 500 uM
[8] = PAMPA, 500 uM
[9] = in vitro; details: PAMPA, Papp
[10] = tested on: PAMPA; details: initial concentration 500 uM, UV detection
[11] = tested on: PAMPA; details: Well 3 / [acc]; Well 3; initial concentration 500 uM; UV detection

In the case of `CCCCC[C@@H]1NC(=O)[C@@H](C)N(C)C(=O)[C@H](CCCCC)OC(=O)[C@@H](C)N(C)C(=O)[C@H](CCCCC)NC(=O)[C@@H](C)N(C)C(=O)[C@H](CCCCC)OC(=O)[C@@H](C)N(C)C1=O` [Compound C2.3] (cyclo([Ahp(2)][dNMeA][X1][dNMeA][Ahp(2)][dNMeA][X1][dNMeA])), the “Experimental Caco‐2 Papp” value [1] is given as “not detected”, the LogPapp [2] is given as -5.23 ± 0.04 and the Δ % diffusion [3] is given as “↑10%”.
In the case of `CCCCC[C@@H]1OC(=O)[C@@H](C)N(C)C1=O` [Compound C1.1], the %T ([4]; Well 1 / %T, Well 1) is reported as 0.91% and 0.93%, the %T ([4]; Well 2 / %T, Well 2) is reported as 0.86% and 0.92% and the %T ([4]; Well 3 / %T, Well 3) is reported as 0.89%. The %T ([4]; Well 4 / %T, Well 4) was 0.92% and 0.96%, the %T ([4]; Well 5 / %T, Well 5) was 0.93% and 0.99% and the Papp ([5]; Papp (x 10^-6 cm/s) – ELSD Detection / [row 1], ELSD Detection) was 14.3 ×10⁻⁶ cm/s. The Papp ([5]; Papp (x 10^-6 cm/s) – ELSD Detection / [row 2], ELSD Detection) was 13.6 ×10⁻⁶ cm/s, the Papp ([5]; Papp (x 10^-6 cm/s) – ELSD Detection / [row 3], ELSD Detection) was 13.9 ×10⁻⁶ cm/s and the Papp ([5]; Papp (x 10^-6 cm/s) – ELSD Detection / [row 4], ELSD Detection) was 15.4 ×10⁻⁶ cm/s. The Papp ([5]; Papp (x 10^-6 cm/s) – ELSD Detection / [row 5], ELSD Detection) was 15 ×10⁻⁶ cm/s, the Papp ([5]; Papp (x 10^-6 cm/s) – ELSD Detection / [row 6], ELSD Detection) was 11.7 ×10⁻⁶ cm/s and the Papp ([5]; Papp (x 10^-6 cm/s) – ELSD Detection / [row 7], ELSD Detection) was 14.1 ×10⁻⁶ cm/s. For the same compound, the Papp ([5]; Papp (x 10^-6 cm/s) – ELSD Detection / [row 8], ELSD Detection) was 15 ×10⁻⁶ cm/s, the Papp ([5]; Papp (x 10^-6 cm/s) – ELSD Detection / [row 9], ELSD Detection) was 14.8 ×10⁻⁶ cm/s and the Papp ([5]; Papp (x 10^-6 cm/s) – ELSD Detection / [row 10], ELSD Detection) was 13.6 ×10⁻⁶ cm/s. For the same compound, the Papp ([5]; Papp (x 10^-6 cm/s) – UV Detection / [row 1], UV Detection) was 15.1 ×10⁻⁶ cm/s, the Papp ([5]; Papp (x 10^-6 cm/s) – UV Detection / [row 2], UV Detection) was 14.2 ×10⁻⁶ cm/s and the Papp ([5]; Papp (x 10^-6 cm/s) – UV Detection / [row 3], UV Detection) was 12.7 ×10⁻⁶ cm/s. It also gave a Papp ([5]; Papp (x 10^-6 cm/s) – UV Detection / [row 4], UV Detection) of 18 ×10⁻⁶ cm/s, a Papp ([5]; Papp (x 10^-6 cm/s) – UV Detection / [row 5], UV Detection) of 19 ×10⁻⁶ cm/s and a Papp ([5]; Papp (x 10^-6 cm/s) – UV Detection / [row 6], UV Detection) of 13.8 ×10⁻⁶ cm/s. For the same compound, the Papp ([5]; Papp (x 10^-6 cm/s) – UV Detection / [row 7], UV Detection) was 11.2 ×10⁻⁶ cm/s, the Papp ([5]; Papp (x 10^-6 cm/s) – UV Detection / [row 8], UV Detection) was 12.7 ×10⁻⁶ cm/s and the Papp ([5]; Papp (x 10^-6 cm/s) – UV Detection / [row 9], UV Detection) was 14.3 ×10⁻⁶ cm/s. For the same compound, the Papp ([5]; Papp (x 10^-6 cm/s) – UV Detection / [row 10], UV Detection) was 15 ×10⁻⁶ cm/s, the % recovery ([6]; Well 1 / %R, Well 1) was 93% and 89% and the % recovery ([6]; Well 2 / %R, Well 2) was 93% and 90%. The % recovery ([6]; Well 3 / %R, Well 3) was 92% and 95%, the % recovery ([6]; Well 4 / %R, Well 4) was 99% and 95% and the % recovery ([6]; Well 5 / %R, Well 5) was 99%. The Acceptor Concentration ([7]; Acceptor Concentration (uM) – ELSD Detection / [row 1], ELSD Detection) was 225 µM, the Acceptor Concentration ([7]; Acceptor Concentration (uM) – ELSD Detection / [row 2], ELSD Detection) was 205 µM and the Acceptor Concentration ([7]; Acceptor Concentration (uM) – ELSD Detection / [row 3], ELSD Detection) was 212 µM. For the same compound, the Acceptor Concentration ([7]; Acceptor Concentration (uM) – ELSD Detection / [row 4], ELSD Detection) was 216 µM, the Acceptor Concentration ([7]; Acceptor Concentration (uM) – ELSD Detection / [row 5], ELSD Detection) was 207 µM and the Acceptor Concentration ([7]; Acceptor Concentration (uM) – ELSD Detection / [row 6], ELSD Detection) was 206 µM. For the same compound, the Acceptor Concentration ([7]; Acceptor Concentration (uM) – ELSD Detection / [row 7], ELSD Detection) was 216 µM, the Acceptor Concentration ([7]; Acceptor Concentration (uM) – ELSD Detection / [row 8], ELSD Detection) was 218 µM and the Acceptor Concentration ([7]; Acceptor Concentration (uM) – ELSD Detection / [row 9], ELSD Detection) was 208 µM. The Acceptor Concentration ([7]; Acceptor Concentration (uM) – ELSD Detection / [row 10], ELSD Detection) was 202 µM, the Acceptor Concentration ([7]; Acceptor Concentration (uM) – UV Detection / [row 1], UV Detection) was 208 µM and the Acceptor Concentration ([7]; Acceptor Concentration (uM) – UV Detection / [row 2], UV Detection) was 204 µM. The Acceptor Concentration ([7]; Acceptor Concentration (uM) – UV Detection / [row 3], UV Detection) was 193 µM, the Acceptor Concentration ([7]; Acceptor Concentration (uM) – UV Detection / [row 4], UV Detection) was 231 µM and the Acceptor Concentration ([7]; Acceptor Concentration (uM) – UV Detection / [row 5], UV Detection) was 245 µM. It also gave an Acceptor Concentration ([7]; Acceptor Concentration (uM) – UV Detection / [row 6], UV Detection) of 193 µM, an Acceptor Concentration ([7]; Acceptor Concentration (uM) – UV Detection / [row 7], UV Detection) of 178 µM and an Acceptor Concentration ([7]; Acceptor Concentration (uM) – UV Detection / [row 8], UV Detection) of 199 µM. For the same compound, the Acceptor Concentration ([7]; Acceptor Concentration (uM) – UV Detection / [row 9], UV Detection) was 208 µM, the Acceptor Concentration ([7]; Acceptor Concentration (uM) – UV Detection / [row 10], UV Detection) was 209 µM and the Δ % diffusion [8] was “↑22%”. For the same compound, the Papp at 500 uM [9] was 14.6 ± 2.38 ×10⁻⁶ cm/s, the Papp at 500 uM ([9]; Ave) was 14.1 ×10⁻⁶ cm/s and the donor concentration after incubation ([10]; Well 1 / [donor], Well 1) was 259 µM and 253 µM. The donor concentration after incubation ([10]; Well 2 / [donor], Well 2) was 262 µM and 271 µM, the donor concentration after incubation ([10]; Well 3 / [donor], Well 3) was 267 µM and 276 µM and the donor concentration after incubation ([10]; Well 4 / [donor], Well 4) was 264 µM and 266 µM. The donor concentration after incubation ([10]; Well 5 / [donor], Well 5) was 250 µM and 261 µM and the acceptor concentration after incubation [11] was 193 µM.
For `CCCCC[C@@H]1NC(=O)[C@@H](C)N(C)C(=O)[C@H](CCCCC)NC(=O)[C@@H](C)N(C)C(=O)[C@H](CCCCC)NC(=O)[C@@H](C)N(C)C(=O)[C@H](CCCCC)NC(=O)[C@@H](C)N(C)C1=O` [Compound C2.5] (cyclo([Ahp(2)][dNMeA][Ahp(2)][dNMeA][Ahp(2)][dNMeA][Ahp(2)][dNMeA])), the Δ % diffusion [8] is given as “↑6%” and the LogPapp [2] is given as -5.31 ± 0.04.
For `CCCCC[C@@H]1NC(=O)[C@@H](C)N(C)C(=O)[C@H](CCCCC)OC(=O)[C@@H](C)N(C)C(=O)[C@H](CCCCC)OC(=O)[C@@H](C)N(C)C(=O)[C@H](CCCCC)NC(=O)[C@@H](C)N(C)C1=O` [Compound C2.2] (cyclo([Ahp(2)][dNMeA][Ahp(2)][dNMeA][X1][dNMeA][X1][dNMeA])), the LogPapp [2] is given as -5.05 ± 0.03 and the Δ % diffusion [3] is given as “↑17%”.
For `CCCCC[C@@H]1NC(=O)[C@@H](C)N(C)C(=O)[C@H](CCCCC)NC(=O)[C@@H](C)N(C)C(=O)[C@H](CCCCC)OC(=O)[C@@H](C)N(C)C(=O)[C@H](CCCCC)NC(=O)[C@@H](C)N(C)C1=O` [Compound C2.4] (cyclo([Ahp(2)][dNMeA][Ahp(2)][dNMeA][Ahp(2)][dNMeA][X1][dNMeA])), the LogPapp [2] is listed as -5.33 ± 0.07 and the Δ % diffusion [3] is listed as “↑7%”.
For `CC(C)NC[C@H](O)COc1cccc2ccccc12` [(S)‐Propranolol, reference compound], the “Literature Papp” value ([2]; ref Schmidt, D., Lynch, J. 2003, Millipore) is given as 10.0 x 10‐6.
In the case of `CCCCC[C@@H]1NC(=O)[C@@H](C)N(C)C(=O)[C@H](CCCCC)OC(=O)[C@@H](C)N(C)C(=O)[C@H](CCCCC)OC(=O)[C@@H](C)N(C)C(=O)[C@H](CCCCC)OC(=O)[C@@H](C)N(C)C1=O` [Compound C2.1] (cyclo([Ahp(2)][dNMeA][X1][dNMeA][X1][dNMeA][X1][dNMeA])), the LogPapp [2] is listed as -4.91 ± 0.09 and the Δ % diffusion [3] is listed as “↑19%”.
